“Also recorded” adds a separate entry of the source.
Columns and labels:
[1] = test system: pelvic floor muscles; experiment: Pelvic floor muscle weight, body weight, lean mass and histology in ovariectomized female mice; format: in vivo, mouse; conditions: OVX mice, 0.5-5 mg/kg/day p.o., 28 days; for pelvic floor muscle weight (cumulative COC, Pc and IL): vs OVX animals
Method: Six to eight week old female mice (n=5-7) purchased from JAX® Mice were ovariectomized (OVX) or sham operated. Twenty days after OVX, treatment was initiated as outlined in the table below. Compounds of Formulas IX and VIII were dissolved in DSMO/PEG 300 (15:85) and were administered by oral gavage. Body weight and MRI measurements, to evaluate total body lean mass, were recorded at the beginning and at the end of the treatment. The animals were treated for twenty-eight days and then sacrificed, pelvic floor muscles isolated, weighed and stored for RNA and protein extraction. The expression of genes involved in catabolism and anabolism of muscle was measured by mRNA analysis. The serum concentrations of the drugs were measured by LC-MS/MS. The statistical analysis was performed using JMP Pro® software utilizing one way analysis of variance.
Pelvic floor muscles were paraffin embedded and sections were stained for collagen (Mason trichrome) and elastin (Van Gieson). Stains were evaluated by a pathologist for fiber length and stain intensity.
The pelvic floor muscles in mice are small making the unmagnified visualization difficult. In order to improve the resolution, the pelvic regions of the mice were immersed in formalin for two days after sacrifice before dissecting them under microscope along with precise weight measurement. The COC, Pc, and IL were isolated and weighed using a microbalance that has a resolution as low as a microgram.
Six to eight week old female mice (n=6-8/group) were ovariectomized (OVX) or sham operated. One month after OVX, when the serum hormone levels were at trough, body composition was measured by MRI and treatment was initiated with vehicle or a dose response of one of two SARMs. Twenty eight days after treatment initiation, body composition was again measured, animals were sacrificed, and pelvic floor muscles were weighed. Serum drug concentrations were measured by LC-MS/MS. Muscle sections were stained for collagen and elastin to evaluate the effect of SARMs on architecture. Data were analyzed by One Way ANOVA followed by Tukey test.

[2] = test system: prostate, seminal vesicles and levator ani muscle; experiment: Androgenic and anabolic activity in intact male rats, daily oral gavage; format: in vivo, rat
Method: Male Sprague-Dawley rats weighing approximately 200 g were purchased from Harlan Bioproducts for Science (Indianapolis, Ind.). The animals were maintained on a 12 h light/dark cycle with food (7012C LM-485 Mouse/Rat Sterilizable Diet, Harlan Teklad, Madison, Wis.) and water available ad libitum. The anabolic and androgenic activity of compound of Formula VIII in intact animals was tested, as well as a dose response evaluation in acutely orchidectomized (ORX) animals. Regenerative effects of the compound of Formula VIII in chronically (9 days) ORX rats was similarly evaluated.
The test article for this study was weighed and dissolved in 10% DMSO (Fisher) diluted with PEG 300 (Acros Organics, NJ) for preparation of the appropriate dosage concentrations. The animals were housed in groups of 2 to 3 animals per cage. Animals were randomly assigned to one of seven groups consisting of 4 to 5 animals per group. Control groups (intact and ORX) were administered vehicle daily. Compound of Formula VIII was administered via oral gavage at doses of 0.01, 0.03, 0.1, 0.3, 0.75, and 1 mg/day to both intact and ORX groups. Where appropriate, animals were castrated on day one of the study. Treatment with compound of Formula VIII began nine days post ORX and was administered daily via oral gavage for fourteen days.
The animals were sacrificed under anesthesia (ketamine/xyalzine, 87:13 mg/kg) and body weights were recorded. In addition, ventral prostate, seminal vesicles, and levator ani muscle were removed, individually weighed, normalized to body weight, and expressed as a percentage of intact control. Student's T-test was used to compare individual dose groups to the intact control group. Significance was defined a priori as a P-value <0.05. Ventral prostate and seminal vesicle weights were evaluated as a measure of androgenic activity, whereas levator ani muscle weight was evaluated as a measure of anabolic activity. Blood was collected from the abdominal aorta, centrifuged, and sera were frozen at −80° C. prior to determination of serum hormone levels. Serum luteinizing hormone (LH) and follicle stimulating hormone (FSH) concentrations were determined.
Male Sprague-Dawley rats weighing approximately 200 g were purchased from Harlan Bioproducts for Science (Indianapolis, Ind.). The animals were maintained on a 12 h light/dark cycle with food (7012C LM-485 Mouse/Rat Sterilizable Diet, Harlan Teklad, Madison, Wis.) and water available ad libitum. Anabolic and androgenic activity of compound of Formula IX in intact animals was evaluated, and the dose response in acutely orchidectomized (ORX) animals was evaluated as well. Regenerative effects of compound of Formula IX in chronically (9 days) ORX rats were also assessed.
The compound was weighed and dissolved in 10% DMSO (Fisher) diluted with PEG 300 (Acros Organics, NJ) for preparation of the appropriate dosage concentrations. The animals were housed in groups of 2 to 3 animals per cage. Intact and ORX animals were randomly assigned to one of seven groups consisting of 4 to 5 animals per group. Control groups (intact and ORX) were administered vehicle daily. Compound of Formula IX was administered via oral gavage at doses of 0.01, 0.03, 0.1, 0.3, 0.75, and 1 mg/day to both intact and ORX groups.
Castrated animals (on day one of the study) were randomly assigned to dose groups (4-5 animals/group) of 0.01, 0.03, 0.1, 0.3, 0.75, and 1 mg/day, for dose-response evaluation. Dosing began nine days post ORX and was administered daily via oral gavage for fourteen days. The animals were sacrificed under anesthesia (ketamine/xyalzine, 87:13 mg/kg) after a 14-day dosing regimen, and body weights were recorded. In addition, ventral prostate, seminal vesicles, and levator ani muscle were removed, individually weighed, normalized to body weight, and expressed as a percentage of intact control. Student's T-test was used to compare individual dose groups to the intact control group. […]

Structure (SMILES)	pelvic floor muscle weight (cumulative COC, Pc and IL) [1]	levator ani muscle weight ([2]; 0.01 mg/day)	prostate weight ([2]; 0.01 mg/day)	seminal vesicle weight ([2]; 0.01 mg/day)	levator ani muscle weight ([2]; 0.03 mg/day)	prostate weight ([2]; 0.03 mg/day)	seminal vesicle weight ([2]; 0.03 mg/day)	levator ani muscle weight ([2]; 0.1 mg/day)	prostate weight ([2]; 0.1 mg/day)	seminal vesicle weight ([2]; 0.1 mg/day)	levator ani muscle weight ([2]; 0.3 mg/day)	prostate weight ([2]; 0.3 mg/day)	seminal vesicle weight ([2]; 0.3 mg/day)	levator ani muscle weight ([2]; 0.75 mg/day)	prostate weight ([2]; 0.75 mg/day)	seminal vesicle weight ([2]; 0.75 mg/day)	levator ani muscle weight ([2]; 1 mg/day)	prostate weight ([2]; 1 mg/day)	seminal vesicle weight ([2]; 1 mg/day)	other results
C[C@](O)(COc1ccc(C#N)cc1)C(=O)Nc1ccc(C#N)c(C(F)(F)F)c1 [Compound IX, (S)—N-(4-Cyano-3-(trifluoromethyl)phenyl)-3-(4-cyanophenoxy)-2-hydroxy-2-methylpropanamide]	increase the weight of pelvic floor muscles	120%±12%	111%±21%	94%±9%	116%±7%	88%±15%	77%±11%	128%±7%	77%±17%	80%±9%	134%±7%	71%±16%	73%±12%	125%±9%	71%±10%	77%±10%	146%±17%	87%±13%	88%±14%	
C[C@](O)(COc1ccc(C#N)cc1)C(=O)Nc1ccc(C#N)c(Cl)c1 [VIII, (S)—N-(3-Chloro-4-cyanophenyl)-3-(4-cyanophenoxy)-2-hydroxy-2-methylpropanamide]	performed better than compound of Formula IX in increasing the muscle weights; also recorded: increase the weight of pelvic floor muscles	107%±5%	103%±10%		103%±7%	99%±10%		97%±7%	58%±10%		103%±5%	58%±15%		118%±7%	65%±20%		118%±7%	77%±23%		total lean body mass by MRI [1]: more potent than Compound IX in increasing lean mass; coccygeus (COC) muscle weight ([1]; vs OVX controls): more potent than Compound IX
C[C@](O)(COc1ccc(C#N)c(F)c1)C(=O)Nc1ccc(C#N)c(C(F)(F)F)c1 [XIII, (S)—N-(4-cyano-3-(trifluoromethyl)phenyl)-3-(4-cyano-3-fluorophenoxy)-2-hydroxy-2-methylpropanamide]		116%±7%	98%±21%	115%±12%	134%±8%	99%±8%	109%±17%	134%±21%	85%±18%	106%±13%	134%±11%	98%±22%	121%±11%	142%±10%	126%±17%	157%±5%	147%±10%	126%±17%	136%±3%	
